# From the NIST ThermoML archive (doi:10.1021/acs.jced.8b01110)
# Numbers after ± are expanded uncertainties.
# Key:
# [1] = wn = mass fraction of the nth substance listed; conditions: 313.15 K, 88.4 kPa, Liquid; for viscosity: Capillary tube (Ostwald / Ubbelohde) method; for mass density: Pycnometric method
# [2] = refractive index (Na D-line) (dimensionless); wn = mass fraction of the nth substance listed; conditions: 313.15 K, 88.4 kPa, Liquid, Standard Abbe refractometry
SMILES,viscosity ([1]; w1 = 0.3289),mass density ([1]; w1 = 0.3289),refractive index ([2]; w1 = 0.3289),viscosity ([1]; w1 = 0.5082),mass density ([1]; w1 = 0.5082),refractive index ([2]; w1 = 0.5082)
O=S(=O)([O-])[O-].[Na+].[Na+] [sodium sulfate] + O,2.703 ± 0.54 mPa·s,1317 ± 10 kg/m3,1.37791 ± 0.00085,,,
O=[N+]([O-])[O-].[Na+] [sodium nitrate] + O,,,,2.14 ± 0.43 mPa·s,1408.4 ± 10 kg/m3,1.39164 ± 0.00086
